The numbers were not newly measured in patent publication US9072786B2, “Method of manufacturing an implantable device” (Endo Pharmaceuticals Solutions Inc., priority 2008, dated 2015), which cites them from elsewhere.

For series [1] the following is noted: concentration of surfactant at which micelles form.
The conditions of series [2]: hydrophilic-lipophilic balance of the surfactant.

Consider `CCCCCCCC/C=C\CCCCCCCC(=O)OCCOCC(OCCO)C1OCC(OCCO)C1OCCO` (stereo not shown) [Tween 80], for which the “CMC” value in series [1] is listed as 0.012 mM. Also, in series [2], the HLB was 15.

For the molecule Sucrose monolaurate, the “CMC” value in series [1] was 0.2 mM. The HLB in series [2] is given as roughly 8.
